“Also recorded” adds a separate entry of the source.
Tests used:
[1] = tested on: IP3 -C5 -BSA induced antibodies (anti-Ins(1,4,5)P3 antiserum); assay: Competitive ELISA: immobilized Ins(1,4,5)P3 vs competitor, IP3-C5-BSA induced antiserum; format: binding, New Zealand White rabbit; details: for IC50: competitive ELISA, read-out: [Competitor] (M) at half maximal absorbance (B/Bo = 0.5) or IC50
Description: (§1) New Zealand White female rabbits were immunized with 1 mg of the IP3 -BSA conjugate in 0.5 ml of saline emulsified with an equal volume of Freund's complete adjuvant by five to six subcutaneous injections at the back and both flanks. Booster injections were given with the same amounts of the IP3 -BSA prepared with incomplete Freund's adjuvant at monthly intervals. After the second boost, the animals were bled from the ear vein 2 weeks after each booster injection. The antisera thus prepared were stored at -20° C. until used.
(§2) The presence of anti-Ins(1,4,5)P3 antibodies in rabbit serum was detected by an ELISA. Ins(1,4,5)P3 (hapten) was covalently attached to microtiter plates through a C-6 linker by adding 6-O-(ω-Aminohexyl)-D-myo-inositol 1,4,5-triphosphate (1) (1.25 μg in 0.1 ml of phosphate buffered saline (PBS) per well) to maleic anhydride-activated polystyrene plates (Pierce). This anhydride-activated plate allows direct coupling of amine-bearing molecules to the well surface, (Pierce Chemical Co. Instruction 15110X (1992) REACTI-BIND™ Maleic Anhydride Activated Polystyrene Plates), and obviates the need for a carrier protein to immobilize haptens. The plate was incubated at room temperature overnight, and each well was blocked by adding 0.12 ml of SUPERBLOCK ™ blocking solution in PBS (Pierce). After 10 minutes at room temperature, the plate was washed twice with 0.05% Tween-20 in 10 mM Tris/HCl containing 0.85% NaCl, pH 7.2 (TBS), followed by TBS buffer twice. Rabbit antiserum (antibodies) diluted in TBS buffer containing 0.1% gelatin was added (95 μl per well). The plate was incubated at 37° C. for 2 hours, and washed as stated above. Specific antibody binding was assessed by adding goat anti-rabbit IgG-HRP conjugate (1/200 dilution in TBS containing 0.1% gelatin; 90 μl per well), and the plate was incubated for another 2 hours at 37° C. After the plate was washed again, the peroxidase substrate solution (90 μl per well) containing 2 mM 2,2'-azinobis(3-ethyl-benzthiazoline-6-sulfonic acid), 2.5 mM hydrogen peroxide, and 50 mM citrate buffer, with a final pH of 5.0, was added. The reaction was incubated at room temperature for 15-20 minutes, and terminated by adding 20 μl of 5% SDS to each well. The absorbance at 415 nm was measured by a microtiter plate reader. Rabbit serum taken before immunization was used as a control in all the assays, from which the absorbance values obtained served as a blank for the correction of experimental data.
(§3) The avidity and specificity of these antisera were examined by competitive ELISA experiments between immobilized Ins(1,4,5)P3 and various inositol phosphates.
(§4) Table 1 Avidity of antisera toward various inositol phosphates and
(§5) PIP2. The avidity is expressed as the concentrations at halfmaximal
(§6) absorbance (B/Bo = 0.5) in the competitive ELISA experiments.

[2] = tested on: IP3 -C6 -NC5 -BSA induced antibodies (anti-Ins(1,4,5)P3 antiserum); assay: Competitive ELISA: immobilized Ins(1,4,5)P3 vs competitor, IP3-C6NC5-BSA induced antiserum; format: binding, New Zealand White rabbit; details: for IC50: IP3-C6-NC5-BSA induced antibodies, competitive ELISA, read-out: [Competitor] (M) at half maximal absorbance (B/Bo = 0.5) or IC50
Description: as §1, §2, §3, §4, §5, §6

[3] = tested on: affinity-purified Ins(1,4,5)P3-specific antibodies (from IP3 -C5 -BSA induced antiserum); assay: Competitive ELISA with affinity-purified Ins(1,4,5)P3-specific antibodies and inositol phosphates; format: binding, New Zealand White rabbit
Description: as §2
The antiserum (5.2 ml) was applied to an ECONO-PAC ™ protein A cartridge (5 ml, Bio-Rad) equilibrated with 100 mM Tris/HCl, pH 8.0. The column was washed with, in sequence, 20 ml of the equilibrating buffer, and 25 ml of 10 mM Tris/HCl, pH 8.0. The bound IgG was eluted with 25 ml of 100 mM glycine buffer, pH 3.0, at a flow rate of 0.5 ml/min. Fractions of 1.7 ml were collected in tubes containing 100 μl of 1M Tris/HCl, pH 8.0.
The dialyzed solution from step 1 was applied to a Ins(1,4,5)IP3 -agarose column (5.8 ml bed volume) equilibrated with 10 mM Tris/HCl, pH 7.5. The column was washed with the equilibration buffer followed by 500 mM NaCl in the same buffer. The absorbed proteins were eluted with, in sequence, 50 ml of 100 mM glycine buffer, pH 3.5, 10 ml of 10 mM Tris/HCl, pH 8.8, and 50 ml of 100 mM NaHCO3 /Na2 CO3 buffer, pH 10.5 Fractions of 1.7 ml were collected. For the eluate with the glycine buffer and with the NaHCO3 /Na2 /CO3 buffer, fractions were collected in tubes containing 100 μl of 1M Tris/HCl, pH 8.0, and 700 μl of 1M Tris/HCl, pH 7.6, respectively.
Referring to FIG. 2, the displacement curves were generated from competitive ELISA experiments between immobilized (1,4,5)IP3 and various inositol phosphates shown in the insert. The antibodies were preincubated with individual competitors at various concentrations for 30 minutes at room temperature before added to the (1,4,5)IP3 immobilized EIA plates. The assay for the competitive binding was the same as that described for the ELISA under "Experimental Procedures". Percentage total specific binding is expressed by B/Bo, where B=absorbance with competitor and Bo =absorbance without competitor. Each data point represents the means of three determinations. For clarity, the standard deviations were not shown.

[4] = tested on: affinity-purified Ins(1,4,5)P3-specific antibodies; assay: Inhibition of binding of affinity-purified antibodies to immobilized Ins(1,4,5)P3 by ions; set-up: species or system New Zealand White rabbit; details: for inhibition of / interference with antibody binding to immobilized Ins(1,4,5)P3: concentration not stated with the result, or 'high concentrations'; for inhibition of antibody recognition by cations: concentrations up to 100 mM; for IC50: affinity-purified antibodies, preincubation 30 minutes, room temperature, read-out: IC50 for inhibition of antibody binding to immobilized Ins(1,4,5)P3; for interference with antibody binding to immobilized Ins(1,4,5)P3: up to 0.3 mM
Description: as §2
Referring to FIG. 3, the affinity-purified antibodies were preincubated with individual multivalent ions at indicated concentrations for 30 minutes at room temperature before added to the (1,4,5)IP3 immobilized EIA plates. […] The assay for the binding inhibition was the same as that described for the ELISA in the Experimental Procedures. Percentage maximal antibody binding is expressed by B/Bo, where B=absorbance with inhibitor and Bo =absorbance without inhibitor. Each data point represents the means of three determinations.

Ins(1,4,5)P3 receptors = details: Wilcox et al. 1993, cited from earlier work; for IC50: read-out: IC50 for displacing [3H]Ins(1,4,5)P3 binding from Ins(1,4,5)P3 receptors

IC50 ([1]; IP3-C5-BSA induced antibodies) [M]	IC50 [2] [M]	Compound	lower affinity relative to Ins(1,4,5)P3 ([2]; both antiserum preparations)	inhibition of / interference with antibody binding to immobilized Ins(1,4,5)P3 [4]	further results
7.1e-05	2.1e-05	O=P(O)(O)O[C@H]1[C@H](OP(=O)(O)O)[C@@H](OP(=O)(O)O)[C@H](O)[C@@H](O)[C@H]1OP(=O)(O)O [Ins(1,2,5,6)P4]	two to four orders of magnitude		
1e-05	1.7e-06	O=P(O)(O)O[C@H]1[C@H](O)[C@@H](O)[C@H](OP(=O)(O)O)[C@@H](OP(=O)(O)O)[C@H]1O [Ins(1,3,4)P3]	two to four orders of magnitude		IC50 [3]: 39 µM; IC50 relative to that of Ins(1,4,5)P3 [3]: three orders or magnitude higher; decrease in affinity compared with IP3-C6NC5-BSA induced antiserum ([1]; IP3-C5-BSA induced antibodies): 10 fold
		[N-]=[N+]=[N-] [N3 -]		no appreciable interference	
	0.00042	O=P(O)(O)OC1[C@H](O)[C@H](O)C(O)[C@H](O)[C@H]1O (stereo partly shown) [Ins(1)P1]	two to four orders of magnitude		
		O=P(O)(O)O[C@H]1[C@H](OP(=O)(O)O)[C@H](O)[C@H](O)[C@@H](O)[C@@H]1OP(=O)(O)O [Ins(1,5,6)P3]	two to four orders of magnitude		order of affinity toward various inositol phosphates ([2]; IP3-C6NC5-BSA induced antiserum): Ins(3,4,5,6)P4 >Ins(1,5,6)P3, PIP2, Ins(1,2,5,6)P4 >Ins(4,5)P2
		[Na+] [Na+]		no inhibiting effect; also recorded: did not affect the binding	inhibition of antibody recognition by cations [4]: did not cause significant inhibition
6.3e-06	4.5e-06	O=P(O)(O)O[C@H]1[C@H](OP(=O)(O)O)[C@@H](OP(=O)(O)O)[C@@H](O)[C@@H](O)[C@@H]1OP(=O)(O)O [Ins(3,4,5,6)P4]	two to four orders of magnitude		
		O=P(O)(O)OC1C(O)C(OP(=O)(O)O)C(OP(=O)(O)O)C(OP(=O)(O)O)C1OP(=O)(O)O (stereo not shown) [Ins(1,3,4,5,6)P5]			IC50 [3]: 45 µM; IC50 relative to that of Ins(1,4,5)P3 [3]: three orders or magnitude higher
0.0008	0.00015	O=P(O)(O)O[C@H]1[C@H](OP(=O)(O)O)[C@@H](OP(=O)(O)O)[C@H](OP(=O)(O)O)[C@@H](OP(=O)(O)O)[C@H]1OP(=O)(O)O [IP6, Phytic acid]	two to four orders of magnitude		
		Nc1ncnc2c1ncn2[C@@H]1O[C@H](COP(=O)(O)OP(=O)(O)OP(=O)(O)O)[C@@H](O)[C@H]1O [ATP^4 -]		could be disrupted	IC50 [4]: 210 µM
2.5e-05	3.8e-05	O=P(O)(O)O[C@@H]1[C@@H](O)[C@H](O)[C@H](O)[C@H](O)[C@H]1OP(=O)(O)O [Ins(4,5)P2]	two to four orders of magnitude		IC50 [3]: 14 µM; IC50 relative to that of Ins(1,4,5)P3 [3]: three orders or magnitude higher
		heparin			interference with antibody binding to immobilized Ins(1,4,5)P3 [4]: not affected; interference with antibody binding to immobilized Ins(1,4,5)P3 ([4]; listed as haparin): no appreciable interference
		NC(CO)(CO)CO [Tris]			inhibition of antibody recognition by cations [4]: did not cause significant inhibition
		O=S(=O)(O)O [SO4^2 -]		could be disrupted	IC50 [4]: 11600 µM
		N [NH4 +]			inhibition of antibody recognition by cations [4]: did not cause significant inhibition
		Cl [C1-]		no appreciable interference	
		N.N.O=S(=O)(O)O [(NH4)2 SO4]			binding capability of antibodies after (NH4)2SO4 precipitation ([4]; even after extensive dialysis): complete loss of binding capability
3.1e-08	8.9e-08	O=P(O)(O)O[C@@H]1[C@H](O)[C@H](O)[C@@H](OP(=O)(O)O)[C@H](OP(=O)(O)O)[C@H]1O [Ins(1,4,5)P3, D-myo-inositol 1,4,5-trisphosphate]			IC50 (Ins(1,4,5)P3 receptors): 0.0207 µM; IC50 [3]: 0.012 µM; binding compared with IP3-C6NC5-BSA induced antiserum ([1]; IP3-C5-BSA induced antibodies): stronger binding
		O=P(O)(O)O [HPO4^2 -]		could be disrupted	IC50 [4]: 2610 µM
		[K+] [K+]		did not affect the binding	inhibition of antibody recognition by cations [4]: did not cause significant inhibition
7.1e-08	2e-07	O=P(O)(O)O[C@H]1[C@H](O)[C@@H](OP(=O)(O)O)[C@H](OP(=O)(O)O)[C@@H](OP(=O)(O)O)[C@H]1O [Ins(1,3,4,5)P4]			weaker than Ins(1,4,5)P3 at displacing specific [3H]Ins(1,4,5)P3 binding (Ins(1,4,5)P3 receptors): about 40 fold; IC50 (Ins(1,4,5)P3 receptors): 0.762 µM; IC50 [3]: 0.73 µM; differential affinity, ratio of IC50 values Ins(1,3,4,5)P4 / Ins(1,4,5)P3 [3]: 60 fold; binding compared with IP3-C6NC5-BSA induced antiserum ([1]; IP3-C5-BSA induced antibodies): stronger binding; ratio of IC50[Ins(1,3,4,5)P4] to IC50[Ins(1,4,5)P3] ([1]; antiserum against IP3-C5-BSA): 2.3; differential affinity, ratio of IC50 values before purification ([1]; antiserum before affinity purification): 2 fold; ratio of IC50[Ins(1,3,4,5)P4] to IC50[Ins(1,4,5)P3] ([2]; antiserum against IP3-C6NC5-BSA): 2.2; affinity relative to Ins(1,4,5)P3 ([2]; both antiserum preparations): one-third of the affinity
3.2e-05	1.6e-05	PIP2	two to four orders of magnitude		IC50 [3]: 14 µM; IC50 relative to that of Ins(1,4,5)P3 [3]: three orders or magnitude higher

From US5798447A, “Antibodies specific for D-myo-inositol 1, 4, 5-trisphosphate and the enzyme-linked immunosorbent assay of D-myo-inositol 1, 4, 5-trisphosphate” (The Board of Governors for Higher Education State of Rhode …, priority 1996, dated 1998)
